Laboratory results from PMC6272715, “Discovery of Novel Small Molecule Anti-HCV Agents via the CypA Inhibitory Mechanism Using O-Acylation-Directed Lead Optimization” (Molecules, 2015).
Read-outs that look alike come from different tables or passages of the source.

How the values were obtained:
HCV JFH1-2a replicon = assay: HCV JFH1-2a subgenomic replicon assay (Renilla luciferase, Huh 7.5.1 replicon cells); type: cell-based; settings: Hepatitis C virus
[1] = tested on: JFH1-2a virus (wild type); assay: HCV virus assay, JFH1-2a wild type, Huh 7.5.1 cells; settings: Hepatitis C virus, Huh-7.5.1, read-out: Anti-HCV Activity EC50 ± SD Virus Assay JFH1-2a
CypA = CypA (Homo sapiens, UniProt P62937); assay: CypA enzyme inhibition assay (chymotrypsin-coupled PPIase assay); type: biochemical; settings: mean ± SD of five independent experiments
Method: The PPIase activity of CypA was conducted in a coupled assay with chymotrypsin using the synthetic tetrapeptide N-succinyl-Ala-Ala-Pro-Phe-p-nitroanilide (Sigma, Shanghai, China) as described in [34] with small modifications. The assay buffer (20 mM Tris-HCl, 50 mM NaCl, pH 7.8) and CypA were precooled at 4 °C and mixed with 0.4 mg∙mL^−1 chymotrypsin (20 mg∙mL^−1 in 1 mM HCl). The reaction was initiated by adding peptide substrate (2 mg∙mL^−1 in 500 mM LiCl in tetrahydrofuran (THF)). […] Absorbance readings were collected every 0.1 s and the temperature was controlled at 4 °C during the assay. The progress curves were analyzed by nonlinear least-squares fit. The inhibition assays of compounds were performed in the same manner as above-mentioned. […] of test compounds in DMSO, at various concentrations, was added to the CypA solution in the assay buffer. After being preincubated for 1 h at 4 °C, the assay was started by the addition of chymotrypsin and the substrate. To calculate the half-maximal inhibitory concentration (IC50), a percent of the remaining PPIase activity was plotted against the common logarithm of the compound concentration, and the data were fitted using the sigmoidal fitting model of Origin 7.0 software.

[2] = Cell proliferation (cytotoxicity) assay, WST-1; type: cell-based; settings: human, Huh 7.5.1 cells, Table 4, 48 h
Method: Cell Proliferation Assay: Huh 7.5.1 cells were seeded at a density of 2 × 10^4 cells per well in 96-well plates overnight. The cells were respectively incubated with serial diluted compounds for 48 h, and the viability of Huh7.5.1 cells was determined in 96-well tissue culture plates using cell proliferation reagent WST-1 (Roche, Basel, Switzerland). The absorbance (OD450 /reference OD630) was measured to detect the cytotoxicity of compounds, according to the manufacturer’s protocol of Cell Proliferation Reagent WST-1.

HCV Con1-1b replicon = assay: HCV Con1-1b subgenomic replicon assay; type: cell-based; settings: Hepatitis C virus; Table 4; read-out: Anti-HCV Activity EC50 ± SD Replicon Assay Con1-1b
HCV H77-1a replicon = assay: HCV H77-1a subgenomic replicon assay; type: cell-based; settings: Hepatitis C virus; Table 4; read-out: Anti-HCV Activity EC50 ± SD Replicon Assay H77-1a
[3] = Table 1, mean ± SD of three independent experiments, read-out: Anti-HCV JFH1-2a Replicon Assay EC50 ± SD
[4] = Table 4, read-out: Anti-HCV Activity EC50 ± SD Replicon Assay JFH1-2a

Sequence of CypA (P62937 whole entry): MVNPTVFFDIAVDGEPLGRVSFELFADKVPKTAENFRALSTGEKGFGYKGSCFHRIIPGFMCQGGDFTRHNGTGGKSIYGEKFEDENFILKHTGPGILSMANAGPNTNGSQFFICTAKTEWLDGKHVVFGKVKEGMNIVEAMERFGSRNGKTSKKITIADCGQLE

In the case of `O=C(NC(=O)c1c(O)cccc1O)Nc1cccc2ccccc12` [Compound 2], the EC50 (HCV JFH1-2a replicon; [3]) is reported as greater than 10 µM.
In the case of `O=C(NCc1ccccc1)NC(=O)c1c(O)cccc1O` [Compound 3], the EC50 (HCV JFH1-2a replicon; [3]) is reported as greater than 50 µM.
`O=C(NC(=O)c1c(O)cccc1O)NC1CCCCC1` [Compound 4] showed an EC50 (HCV JFH1-2a replicon; [3]) greater than 50 µM.
`O=C(NC(=O)c1ccccc1Cl)NC1c2ccccc2-c2ccccc21` [Compound 5] gave an EC50 (HCV JFH1-2a replicon; [3]) greater than 50 µM.
In the case of `O=C(NC(=O)c1ccccc1[N+](=O)[O-])NC1c2ccccc2-c2ccccc21` [Compound 6], the EC50 (HCV JFH1-2a replicon; [3]) is reported as greater than 50 µM.
Work on `N#Cc1ccccc1C(=O)NC(=O)NC1c2ccccc2-c2ccccc21` [Compound 7] yielded an EC50 (HCV JFH1-2a replicon; [3]) greater than 50 µM.
With `O=C(NC(=O)c1ccccc1F)NC1c2ccccc2-c2ccccc21` [Compound 8] the EC50 (HCV JFH1-2a replicon; [3]) was 1.65 ± 0.32 µM.
`O=C(NC(=O)c1ccccc1C(F)(F)F)NC1c2ccccc2-c2ccccc21` [Compound 9] showed an EC50 (HCV JFH1-2a replicon; [3]) greater than 10 µM.
In the case of `CSc1ccccc1C(=O)NC(=O)NC1c2ccccc2-c2ccccc21` [Compound 10], the EC50 (HCV JFH1-2a replicon; [3]) is reported as greater than 50 µM.
With `O=C(NC(=O)c1c(F)cccc1F)NC1c2ccccc2-c2ccccc21` [Compound 11] the EC50 (HCV JFH1-2a replicon; [3]) was greater than 50 µM.
In the case of `CSc1cccc(F)c1C(=O)NC(=O)NC1c2ccccc2-c2ccccc21` [Compound 12], the EC50 (HCV JFH1-2a replicon; [3]) is reported as greater than 50 µM.
For `COc1cccc(Cl)c1C(=O)NC(=O)NC1c2ccccc2-c2ccccc21` [Compound 13], the EC50 (HCV JFH1-2a replicon; [3]) was greater than 50 µM.
In the case of `CC(=O)Oc1cccc(O)c1C(=O)NC(=O)NC1c2ccccc2-c2ccccc21` [Compound 14, 1-(2-Acetoxy-6-hydroxybenzoyl)-3-(9H-fluoren-9-yl)-urea], the EC50 [1] is reported as 710 ± 340 nM, the IC50 (CypA) is reported as 2430 ± 500 nM and the CC50 at 48 h [2] is reported as greater than 16 µM. For the same molecule, the EC50 (HCV Con1-1b replicon) was 800 ± 230 nM, the EC50 (HCV JFH1-2a replicon; [3]) was 0.55 ± 0.03 µM and the EC50 (HCV JFH1-2a replicon; [4]) was 0.55 ± 0.03 µM. It also gave an EC50 (HCV H77-1a replicon) of 770 ± 370 nM.
With `CC(=O)Oc1cccc(OC(C)=O)c1C(=O)NC(=O)NC1c2ccccc2-c2ccccc21` [Compound 15, 1-[2,6-Bis-(acetoxy)benzoyl]-3-(9H-fluoren-9-yl)-urea] the EC50 [1] was 740 ± 360 nM, the CC50 at 48 h [2] was greater than 16 µM and the EC50 (HCV Con1-1b replicon) was 360 ± 40 nM. For the same molecule, the EC50 (HCV JFH1-2a replicon; [3]) was 0.46 ± 0.05 µM, the EC50 (HCV JFH1-2a replicon; [4]) was 0.46 ± 0.05 µM and the EC50 (HCV H77-1a replicon) was 800 ± 130 nM.
`O=C(NC(=O)c1c(O)cccc1OCCO)NC1c2ccccc2-c2ccccc21` [Compound 16] showed an EC50 (HCV JFH1-2a replicon; [3]) greater than 20 µM.
